Test results taken from the supplement of paper PMC10702517.
± gives the standard deviation.

Experiment: chemical recovery into PDMS from spiked human plasma; higher = better extraction
Conditions: pooled human plasma; extraction method: PES with PDMS; equilibration time (d): 1

SMILES | chemical recovery into PDMS
CCc1cccc(C)c1N(C(=O)CS(=O)(=O)O)[C@@H](C)C(=O)O [Metolachlor-NOA 413-173] | 1.97 ± 4.4%
CN(C)CCC=C1c2ccccc2CCc2ccccc21 [Amitriptyline] | 0.00525 ± 0.0045%
C=CCC1=C(C)C(OC(=O)C2C(C=C(C)C)C2(C)C)CC1=O (stereo not given) [Allethrin] | 36 ± 1.6%
O=c1c2ccccc2[nH]c2ccccc12 [Acridone] | 11.4 ± 0.43%
CCC(=O)O[C@]1(C(=O)SCF)[C@H](C)C[C@H]2[C@@H]3C[C@H](F)C4=CC(=O)C=C[C@]4(C)[C@@]3(F)[C@@H](O)C[C@@]21C [Fluticasone propionate] | 32.3 ± 3%
CCOC(=O)c1ccc(N(C)C)cc1 [Ethyl 4-(dimethylamino)benzoate] | 26 ± 6%
Clc1ccc(Cl)c(-c2ccccc2Cl)c1 [PCB18] | 48.2 ± 2.5%
C[Si](Cn1cncn1)(c1ccc(F)cc1)c1ccc(F)cc1 [Flusilazole] | 41.3 ± 2.2%
CC(C)N(C(=O)COc1nnc(C(F)(F)F)s1)c1ccc(F)cc1 [Flufenacet] | 50 ± 1.1%
C#C[C@]1(OC(C)=O)CC[C@H]2[C@@H]3CCC4=CC(=NO)CC[C@@H]4[C@H]3CC[C@@]21CC (mixture of isomers) [Norgestimate] | 15.9 ± 6.2%
CN1C(=O)CN=C(c2ccccc2)c2cc(Cl)ccc21 [Diazepam] | 34.5 ± 1.3%

Same assay, conditions: pooled human plasma; extraction method: PES with PDMS; equilibration time (d): 3

SMILES | chemical recovery into PDMS
Clc1cc(Cl)c(-c2cc(Cl)c(Cl)c(Cl)c2Cl)cc1Cl [PCB180] | 67.8 ± 8%
COC(=O)[C@H](c1ccccc1Cl)N1CCc2sccc2C1 [Clopidogrel] | 25.5 ± 7.8%
O=C1Nc2ccc(Cl)cc2C(C#CC2CC2)(C(F)(F)F)O1 (stereo not given) [Efavirenz] | 46.6 ± 4.5%
Fc1ccc(Oc2ccnc3cc(Cl)cc(Cl)c23)cc1 [Quinoxyfen] | 50.5 ± 5.9%
Fc1ccc([C@]2(Cn3cncn3)O[C@H]2c2ccccc2Cl)cc1 (racemic) [Epoxiconazole] | 48.1 ± 4.1%
OC(Cc1ccccc1Cl)(Cn1cncn1)C1(Cl)CC1 (stereo not given) [Prothioconazole-desthio] | 38.6 ± 2%
NC(=O)Nc1ccc(Cl)c(Cl)c1 [3,4-Dichlorophenylurea] | 4.96 ± 0.6%
O=P1(NCCCl)OCCCN1CCCl (stereo not given) [Ifosfamide] | 6.16 ± 1.5%
Brc1cc(Br)c(Oc2cc(Br)c(Br)cc2Br)c(Br)c1 [BDE154] | 67.2 ± 9.8%
CC1(C)CCC(Cc2ccc(Cl)cc2)C1(O)Cn1cncn1 (stereo not given) [Metconazole] | 41.9 ± 2.7%
c1cc2ccc3cccc4ccc(c1)c2c34 [Pyrene] | 79.6 ± 17%
C[C@]12CCC(=O)C=C1CC[C@@H]1[C@@H]2CC[C@]2(C)C(=O)CC[C@@H]12 [4-Androstene-3,17-dione] | 43.4 ± 1.7%
CCOC(=O)C(C)(C)Oc1ccc(Cl)cc1 [Clofibrate] | 42.9 ± 4.2%
CCCN(CCOc1c(Cl)cc(Cl)cc1Cl)C(=O)NC=O | 42.2 ± 4.2%
Brc1ccc(Oc2cc(Br)c(Br)cc2Br)c(Br)c1 [BDE99] | 99.1 ± 13%
CCNc1ccc2c(C)cc(=O)oc2c1 [7-(Ethylamino)-4-methylcoumarin] | 28.7 ± 3%
O=C(/C=C/C=C/c1ccc2c(c1)OCO2)N1CCCCC1 [Piperine] | 39.3 ± 4.2%
O=C(O)CCC(=O)c1ccc(F)cc1 [4-Fluorobenzoylpropionic acid] | 0.0416 ± 0.072%
Nc1cnn(-c2ccccc2)c(=O)c1Cl [Chloridazon] | 7.42 ± 1.7%
O=P(OC(CCl)CCl)(OC(CCl)CCl)OC(CCl)CCl [TDCPP] | 37.4 ± 4.4%
COCCN(C(=O)CS(=O)(=O)O)c1c(C)cccc1C [Dimethachlor ESA] | 0.000445 ± 0.00077%
CCOC1Oc2ccc(OS(C)(=O)=O)cc2C1(C)C (stereo not given) [Ethofumesate] | 42.3 ± 2.6%

SMILES | chemical recovery into PDMS
c1ccc2sc(N3CCOCC3)nc2c1 [2(4-morpholinyl)benzothiazole] | 29.2 ± 2.2%
CS(=O)(=O)c1ccccc1 [Methylphenylsulfone] | 98.5 ± 33%
Clc1ccc(Cl)c(-c2cccc(Cl)c2Cl)c1 [PCB44] | 90.2 ± 12%
Nc1cn[nH]c(=O)c1Cl [Desphenyl chloridazon] | 0.133 ± 0.038%
CN(C)c1ccc(C(=O)c2ccc(N(C)C)cc2)cc1 [Michler's ketone] | 15.5 ± 10%
C#C[C@]1(O)CC[C@H]2[C@@H]3CCC4=CC(=O)CC[C@@H]4[C@H]3CC[C@@]21C [Norethindrone] | 46.1 ± 2.3%
CC(C)(C)C(=O)C(Oc1ccc(Cl)cc1)n1ccnc1 (stereo not given) [Climbazole] | 40 ± 1%
N#Cc1nn(-c2c(Cl)cc(C(F)(F)F)cc2Cl)c(N)c1[S+]([O-])C(F)(F)F (stereo not given) [Fipronil] | 30.2 ± 2.3%
CCOC(=O)CC(O)(CC(=O)OCC)C(=O)OCC [Triethylcitrate] | 23.1 ± 3.8%
CCc1cccc(C)c1N(C(=O)CS(=O)(=O)O)[C@@H](C)C(=O)O [Metolachlor-NOA 413-173] | 9.48 ± 1.4%
CN(C)CCC=C1c2ccccc2CCc2ccccc21 [Amitriptyline] | 0.0228 ± 0.034%
C=CCC1=C(C)C(OC(=O)C2C(C=C(C)C)C2(C)C)CC1=O (stereo not given) [Allethrin] | 38.6 ± 3.5%
O=c1c2ccccc2[nH]c2ccccc12 [Acridone] | 19.2 ± 3.2%
CCC(=O)O[C@]1(C(=O)SCF)[C@H](C)C[C@H]2[C@@H]3C[C@H](F)C4=CC(=O)C=C[C@]4(C)[C@@]3(F)[C@@H](O)C[C@@]21C [Fluticasone propionate] | 39.3 ± 3.7%
CCOC(=O)c1ccc(N(C)C)cc1 [Ethyl 4-(dimethylamino)benzoate] | 27.7 ± 4.9%
Clc1ccc(Cl)c(-c2ccccc2Cl)c1 [PCB18] | 50.3 ± 10%
C[Si](Cn1cncn1)(c1ccc(F)cc1)c1ccc(F)cc1 [Flusilazole] | 45.7 ± 3.8%
CC(C)N(C(=O)COc1nnc(C(F)(F)F)s1)c1ccc(F)cc1 [Flufenacet] | 54.1 ± 4.8%
C#C[C@]1(OC(C)=O)CC[C@H]2[C@@H]3CCC4=CC(=NO)CC[C@@H]4[C@H]3CC[C@@]21CC (mixture of isomers) [Norgestimate] | 9.35 ± 5.2%
CN1C(=O)CN=C(c2ccccc2)c2cc(Cl)ccc21 [Diazepam] | 40.4 ± 3.4%
OC(c1ccc(Cl)cc1)(c1ccc(Cl)cc1)C(Cl)(Cl)Cl [Dicofol] | 56.9 ± 18%

Same assay, conditions: pooled human plasma; extraction method: PES with PDMS; equilibration time (d): 6

SMILES | chemical recovery into PDMS
Clc1cc(Cl)c(-c2cc(Cl)c(Cl)c(Cl)c2Cl)cc1Cl [PCB180] | 73.3 ± 5.7%
COC(=O)[C@H](c1ccccc1Cl)N1CCc2sccc2C1 [Clopidogrel] | 28.3 ± 5.4%
O=C1Nc2ccc(Cl)cc2C(C#CC2CC2)(C(F)(F)F)O1 (stereo not given) [Efavirenz] | 47.4 ± 0.83%
Fc1ccc(Oc2ccnc3cc(Cl)cc(Cl)c23)cc1 [Quinoxyfen] | 48.7 ± 2%
Fc1ccc([C@]2(Cn3cncn3)O[C@H]2c2ccccc2Cl)cc1 (racemic) [Epoxiconazole] | 46.5 ± 5.9%
OC(Cc1ccccc1Cl)(Cn1cncn1)C1(Cl)CC1 (stereo not given) [Prothioconazole-desthio] | 38.5 ± 1.7%
Nc1nc(N)nc(NC2CC2)n1 [Cyromazine] | 1.4 ± 0.44%
NC(=O)Nc1ccc(Cl)c(Cl)c1 [3,4-Dichlorophenylurea] | 5.93 ± 0.81%
O=P1(NCCCl)OCCCN1CCCl (stereo not given) [Ifosfamide] | 6.9 ± 1.5%
Brc1cc(Br)c(Oc2cc(Br)c(Br)cc2Br)c(Br)c1 [BDE154] | 66.7 ± 20%
CC1(C)CCC(Cc2ccc(Cl)cc2)C1(O)Cn1cncn1 (stereo not given) [Metconazole] | 41.91 ± 0.15%
c1cc2ccc3cccc4ccc(c1)c2c34 [Pyrene] | 77.8 ± 20%
C[C@]12CCC(=O)C=C1CC[C@@H]1[C@@H]2CC[C@]2(C)C(=O)CC[C@@H]12 [4-Androstene-3,17-dione] | 42.6 ± 3.7%
CCOC(=O)C(C)(C)Oc1ccc(Cl)cc1 [Clofibrate] | 43 ± 5.5%
CCCN(CCOc1c(Cl)cc(Cl)cc1Cl)C(=O)NC=O | 43.2 ± 2.2%
CCCC1O[C@@H]2C[C@H]3[C@@H]4CCC5=CC(=O)C=C[C@]5(C)[C@H]4[C@@H](O)C[C@]3(C)[C@]2(C(=O)CO)O1 (stereo not given in full) [Budesonide] | 22.6 ± 1.5%
Brc1ccc(Oc2cc(Br)c(Br)cc2Br)c(Br)c1 [BDE99] | 92.4 ± 7.2%
CCNc1ccc2c(C)cc(=O)oc2c1 [7-(Ethylamino)-4-methylcoumarin] | 30.7 ± 1.9%
O=C(/C=C/C=C/c1ccc2c(c1)OCO2)N1CCCCC1 [Piperine] | 36.6 ± 1.7%
O=C(O)CCC(=O)c1ccc(F)cc1 [4-Fluorobenzoylpropionic acid] | 0.0611 ± 0.11%
Nc1cnn(-c2ccccc2)c(=O)c1Cl [Chloridazon] | 8.14 ± 1.6%
O=P(OC(CCl)CCl)(OC(CCl)CCl)OC(CCl)CCl [TDCPP] | 35.8 ± 3%
CN(Cc1nc2c(N)nc(N)nc2nc1O)c1ccc(C(=O)N[C@@H](CCC(=O)O)C(=O)O)cc1 [7-Hydroxymethotrexate] | 0.0138 ± 0.079%

SMILES | chemical recovery into PDMS
CCOC1Oc2ccc(OS(C)(=O)=O)cc2C1(C)C (stereo not given) [Ethofumesate] | 44 ± 0.63%
c1ccc2sc(N3CCOCC3)nc2c1 [2(4-morpholinyl)benzothiazole] | 30.7 ± 0.94%
CS(=O)(=O)c1ccccc1 [Methylphenylsulfone] | 100 ± 28%
Clc1ccc(Cl)c(-c2cccc(Cl)c2Cl)c1 [PCB44] | 99.1 ± 11%
Nc1cn[nH]c(=O)c1Cl [Desphenyl chloridazon] | 0.161 ± 0.2%
CN(C)c1ccc(C(=O)c2ccc(N(C)C)cc2)cc1 [Michler's ketone] | 16.7 ± 4.2%
C#C[C@]1(O)CC[C@H]2[C@@H]3CCC4=CC(=O)CC[C@@H]4[C@H]3CC[C@@]21C [Norethindrone] | 47.6 ± 1.2%
c1ccc(Cc2ccccc2)cc1 [Diphenylmethane] | 40.4 ± 12%
CC(C)(C)C(=O)C(Oc1ccc(Cl)cc1)n1ccnc1 (stereo not given) [Climbazole] | 39.7 ± 1.4%
N#Cc1nn(-c2c(Cl)cc(C(F)(F)F)cc2Cl)c(N)c1[S+]([O-])C(F)(F)F (stereo not given) [Fipronil] | 29 ± 0.92%
CCOC(=O)CC(O)(CC(=O)OCC)C(=O)OCC [Triethylcitrate] | 26.2 ± 2.7%
CCc1cccc(C)c1N(C(=O)CS(=O)(=O)O)[C@@H](C)C(=O)O [Metolachlor-NOA 413-173] | 7.51 ± 7%
CS(=O)(=O)c1ccc(C(=O)C2C(=O)CCCC2=O)c(Cl)c1 [Sulcotrione] | 0.00153 ± 0.0027%
C=CCC1=C(C)C(OC(=O)C2C(C=C(C)C)C2(C)C)CC1=O (stereo not given) [Allethrin] | 37.9 ± 1.6%
O=c1c2ccccc2[nH]c2ccccc12 [Acridone] | 21.8 ± 3.6%
ClC1=C(Cl)[C@]2(Cl)[C@@H]3[C@@H]4C[C@@H]([C@H]5O[C@@H]45)[C@@H]3[C@@]1(Cl)C2(Cl)Cl [Dieldrin] | 97 ± 29%
CCC(=O)O[C@]1(C(=O)SCF)[C@H](C)C[C@H]2[C@@H]3C[C@H](F)C4=CC(=O)C=C[C@]4(C)[C@@]3(F)[C@@H](O)C[C@@]21C [Fluticasone propionate] | 41.3 ± 2.3%
CCOC(=O)c1ccc(N(C)C)cc1 [Ethyl 4-(dimethylamino)benzoate] | 29.8 ± 3.4%
Clc1ccc(Cl)c(-c2ccccc2Cl)c1 [PCB18] | 46.5 ± 10%
C[Si](Cn1cncn1)(c1ccc(F)cc1)c1ccc(F)cc1 [Flusilazole] | 43.1 ± 5.8%
CC(C)N(C(=O)COc1nnc(C(F)(F)F)s1)c1ccc(F)cc1 [Flufenacet] | 51.2 ± 6%
C#C[C@]1(OC(C)=O)CC[C@H]2[C@@H]3CCC4=CC(=NO)CC[C@@H]4[C@H]3CC[C@@]21CC (mixture of isomers) [Norgestimate] | 13.5 ± 8.6%
CN1C(=O)CN=C(c2ccccc2)c2cc(Cl)ccc21 [Diazepam] | 39.3 ± 2%
